In patent publication US10213415B2, “Compounds as opioid receptor modulators” (JANSSEN PHARMACEUTICA NV, priority 2004, dated 2019):
“And” between values parts separate entries of the source, which are not always exact repeats. Equal entries are not always repeated. Where two headings read alike, the source gives them in different places.

Key:
[1] = biological target: T1, human delta subtype 2 opioid receptor (Homo sapiens, UniProt P41143); test: Human Delta Opioid Receptor Binding Assay (CHO membranes, 3H-Naltrindole); settings: read-out: hKi δ
T1 construct: purchased Perkin Elmer RBHODM400UA; host or cells: Chinese Hamster Ovary cells (recombinant expression)
T1 sequence (P41143 whole entry): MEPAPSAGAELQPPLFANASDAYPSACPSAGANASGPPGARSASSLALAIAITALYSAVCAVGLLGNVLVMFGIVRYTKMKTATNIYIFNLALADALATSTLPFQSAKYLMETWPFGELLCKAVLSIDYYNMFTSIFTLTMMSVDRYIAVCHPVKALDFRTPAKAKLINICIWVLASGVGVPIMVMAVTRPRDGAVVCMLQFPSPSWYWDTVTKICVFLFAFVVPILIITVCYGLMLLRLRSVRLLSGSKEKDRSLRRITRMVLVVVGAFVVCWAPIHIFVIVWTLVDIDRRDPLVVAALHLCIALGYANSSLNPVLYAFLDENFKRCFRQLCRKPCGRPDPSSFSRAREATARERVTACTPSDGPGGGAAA
Summary of the method: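 Compound displacement of tritiated naltrindole (6 nM working dilution) measured by scintillation counting after GF/C filtration. Receptor source: recombinant CHO membranes; buffer 50 mM Tris, 5 mM MgCl2, pH 7.5; 30 min room-temperature incubation. 1 μM cold naltrindole sets nonspecific binding.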

[2] = biological target: T2, delta opioid receptor (NG108-15 cell membranes) (Mus musculus, UniProt P32300); test: Delta Opioid Receptor Functional Assay: [35S]GTPγS Binding in NG108-15 Cell Membranes, Version 2; type: biochemical; settings: for DOR GTP-binding Assay v2 (% I): % inhibition of agonist-stimulated GTPγS binding
T2 construct: NG108-15 cell membranes were purchased from Applied Cell Sciences (Rockville, Md.); host or cells: NG108-15 cells (membranes purchased)
T2 sequence (P32300 whole entry): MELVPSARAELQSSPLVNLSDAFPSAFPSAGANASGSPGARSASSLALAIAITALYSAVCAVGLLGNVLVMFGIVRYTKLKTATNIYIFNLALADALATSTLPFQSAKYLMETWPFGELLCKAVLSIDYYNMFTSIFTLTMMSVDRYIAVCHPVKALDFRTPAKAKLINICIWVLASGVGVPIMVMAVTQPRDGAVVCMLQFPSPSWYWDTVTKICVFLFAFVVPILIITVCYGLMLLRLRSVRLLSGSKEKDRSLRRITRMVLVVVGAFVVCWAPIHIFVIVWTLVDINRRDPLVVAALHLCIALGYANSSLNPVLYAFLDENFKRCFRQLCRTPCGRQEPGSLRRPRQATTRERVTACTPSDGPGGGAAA
Summary of the method: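 SPA-coupled NG108-15 membranes (37.5 μg/ml) were incubated with 0.1 nM [35S]GTPγS and 100 μM GDP in Tris pH 7.6, 5 mM MgCl2, 100 mM NaCl, with increasing agonist concentrations; 10 μM unlabeled GTPγS defined nonspecific binding. EC50 from % of basal; inhibition as % of 1 μM SNC80 stimulation.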

[3] = tested on: male CD-1 mice; test: In Vivo Assay: Stress-Induced Entire GI Tract Transit (MEGIT, MEGIT-NES, MEGIT-RS); design: species or system mouse; settings: for MEGIT-RS entire GI transit 5 hr (% RS): dose 20 p.o., restraint stress; for MEGIT entire GI transit 6 hr % ctrl: acclimated mice
Method: Methods: The animals used in these studies are male CD-1 mice, ave. wt. ˜30 g. Procedure: Mice were housed in LAM under 12 h/12 h light/dark cycle, food & water ad lib. On the day before the experiments, the mice assigned to the “acclimated” (non-stressed) control group were placed into individual wire mesh-bottomed cages, provided food and water ad lib. The acclimated control group was in this new environment for 16-18 hrs prior to beginning the test. On the day of the experiment, mice assigned to experimental groups were housed in home cages were transported to procedure room and remain in their home cages until the start of the transit portion of the study. […] After the carmine marker was administered each mouse was placed in the novel environment cage. One hour after administration of carmine, the fecal pellet output of each animal was recorded. At one-hour intervals thereafter the fecal pellets were examined for the presence of carmine-dye. The number of mice that excreted a carmine-containing fecal pellet at the end of each hour post carmine administration was recorded, until all mice had excreted carmine in a fecal pellet or the end of 6 hrs post carmine administration, whichever occurred first. A variant of this novel environment stress (NES) paradigm is to use the same procedures of dye and compound administrations, but to use restraint (confinement in a small plastic tube for 3 hr) as a stressor (RS=restraint stress), followed by two hours in an individual cage (total of 5 hr fecal transit time). […] The mouse entire GI tract (MEGIT) transit test can thus be done in mice that are all acclimated (non-stressed), in which case the data are expressed as % control (vehicle only), or in mice that are exposed to NES or RS, in which cases the data are expressed as % of the vehicle treated NES or RS group.

[4] = tested on: male CD-1 mice; test: In Vivo Assay: Upper GI Tract Transit (MUGIT); settings: Mus musculus, po, 1 h, p.o., read-out: upper GI transit (% ctrl)
Method: Methods: The animals used in these studies were male CD-1 mice, ave. wt. ˜30 g. Mice were housed under 12 h/12 h light/dark cycle, food & water ad lib. On the day of the experiment mice were assigned to experimental groups, including one vehicle-only group (=control). At 30 min before administration of carmine dye, animals were dosed with vehicle or vehicle-plus-compound, mice were returned to their home cages after drug administration. After administration of carmine, the animals were either returned to their home cages (non-stressed) or individually placed in the same metal cages as used in the fecal output or entire GI tract transit to induce a novel environment stress. One hour after administration of carmine, mice were sacrificed by cervical dislocation, the abdomen opened midventrally, the small intestine from pylorus to cecum was removed, the mesentery divided in order to lay the intestine straight & flat—without stretching. The total length of intestine and the length of carmine-dyed intestine were measured in order to determine the percent of the upper GI tract over which transit had occurred as follows: {(Length of carmine-dyed intestine)/(Total length of intestine)}×100=% upper GI transit. The data expressed were group means±SD (or s.e.m.) and data expressed as % of control.

[5] = NG108-15 cell membranes, [35S]GTPγS, version 2, read-out: DOR GTP-binding Assay_v2_ EC50
[6] = NG108-15 cell membranes, version 2

Cc1cc(O)cc(C)c1C[C@H](N)C(=O)N(Cc1ccccc1)[C@@H](C)c1nc(-c2ccccc2)c[nH]1 [Cpd 218]
Ki [1]: 0.189 µM

COc1ccc(CN(C(=O)[C@@H](N)Cc2c(C)cc(O)cc2C)[C@@H](C)c2nc(-c3ccccc3)c[nH]2)cc1C(=O)O [Cpd 260]
EC50 [2, 5]: > 10 µM
DOR GTP-binding Assay v2 (% I) [2, 6]: 100.97%

COc1ccc(CN(C(=O)[C@@H](N)Cc2ccc(C(N)=O)cc2)[C@@H](C)c2nc(-c3ccccc3)c[nH]2)cc1C(=O)O [Cpd 4]
MEGIT-RS entire GI transit 5 hr (% RS) [3]: 100 % RS
EC50 [2, 5]: 0.046 µM
DOR GTP-binding Assay v2 (% I) [2, 6]: 66.12%

Cc1cc(O)cc(C)c1C[C@H](N)C(=O)N(C)[C@H](C)c1nc(-c2ccccc2)c[nH]1 [Cpd 206]
Ki [1]: 0.275 µM

COc1ccc(CN(Cc2nc(-c3ccccc3)c[nH]2)C(=O)[C@@H](N)Cc2ccc(C(N)=O)cc2)cc1C(=O)O [Cpd 5]
EC50 [2, 5]: > 10 µM
DOR GTP-binding Assay v2 (% I) [2, 6]: 47.12%

Cc1cc(O)cc(C)c1C[C@H](N)C(=O)N(C)Cc1nc(-c2ccccc2)c[nH]1 [Cpd 199]
Ki [1]: 0.209 µM

COC(=O)c1cc(CN(C(=O)[C@@H](N)Cc2c(C)cc(C(N)=O)cc2C)[C@@H](C)c2nc(-c3ccccc3)c[nH]2)ccc1OC [Cpd 17]
EC50 [2, 5]: 0.0013 µM
DOR GTP-binding Assay v2 (% I) [2, 6]: 68.64%
response vs control in vivo at 30 mg [4]: 37.3%

Cc1cc(O)cc(C)c1C[C@H](N)C(=O)N(Cc1cccc(C(=O)O)c1)[C@@H](C)c1nc(-c2ccccc2)c[nH]1 [Cpd 48]
EC50 [2, 5]: > 10 µM
DOR GTP-binding Assay v2 (% I) [2, 6]: 108.36%
response vs control in vivo at 30 mg [4]: 102%

Cc1cc(O)cc(C)c1C[C@H](N)C(=O)N(Cc1ccnc2ccccc12)[C@@H](C)c1nc(-c2ccccc2)c[nH]1 [Cpd 246]
EC50 [2, 5]: 0.0003 µM
DOR GTP-binding Assay v2 (% I) [2, 6]: 47.01%

Cc1cc(C(N)=O)cc(C)c1C[C@H](N)C(=O)N(Cc1ccc(C(=O)O)cc1)[C@@H](C)c1nc(-c2ccccc2)c[nH]1 [Cpd 50]
EC50 [2, 5]: 0.0014 µM
DOR GTP-binding Assay v2 (% I) [2, 6]: 60.27%

COc1ccc(CN(C(=O)[C@@H](N)Cc2c(C)cc(C(N)=O)cc2C)[C@@H](C)c2nc(-c3ccccc3)c[nH]2)cc1OC [Cpd 75]
Ki [1]: 0.0085 µM
MEGIT entire GI transit 6 hr % ctrl ([3]; dose 30 p.o.): 125 % ctrl
MEGIT entire GI transit 6 hr % ctrl ([3]; dose 60 p.o.): 0 % ctrl
MEGIT entire GI transit 6 hr % ctrl ([3]; dose 100 p.o.): 0 % ctrl
EC50 [2, 5]: 0.0014 µM
DOR GTP-binding Assay v2 (% I) [2, 6]: 65.35%
response vs control in vivo at 30 mg [4]: 71.1%
response vs control in vivo at 60 mg ([4]; dose 60 (mg)): 56%
response vs control in vivo at 100 mg [4]: 45.6%

COC(=O)c1ccc(CN(C(=O)[C@@H](N)Cc2ccc(C(N)=O)cc2)[C@@H](C)c2nc(-c3ccccc3)c[nH]2)o1 [Cpd 303]
EC50 [2, 5]: 0.095 µM
DOR GTP-binding Assay v2 (% I) [2, 6]: 23.85%

Cc1ccccc1-c1nc(CN(C(=O)[C@@H](N)Cc2c(C)cc(O)cc2C)C(C)C)[nH]c1C [Cpd 165]
Ki [1]: 0.322 µM

Cc1cc(C(N)=O)cc(C)c1C[C@H](N)C(=O)N(Cc1ccccc1)[C@@H](C)c1nc(-c2ccccc2)c[nH]1 [Cpd 114]
Ki [1]: 0.049 µM

Cc1cc(C(N)=O)cc(C)c1C[C@H](N)C(=O)N(Cc1cccc(C(=O)O)c1)[C@@H](C)c1nc(-c2ccccc2)c[nH]1 [Cpd 227]
MEGIT-RS entire GI transit 5 hr (% RS) [3]: 100 % RS
EC50 [2, 5]: > 10 µM
DOR GTP-binding Assay v2 (% I) [2, 6]: 66.56%
response vs control in vivo at 30 mg [4]: 93.9%

Cc1cc(C(N)=O)cc(C)c1C[C@H](N)C(=O)N(Cc1cccc(-c2nnn[nH]2)c1)[C@@H](C)c1nc(-c2ccccc2)c[nH]1 [Cpd 242]
MEGIT-RS entire GI transit 5 hr (% RS) [3]: 100 % RS
EC50 [2, 5]: > 10 µM
DOR GTP-binding Assay v2 (% I) [2, 6]: 91.45%

Cc1cc(O)cc(C)c1C[C@H](N)C(=O)N(Cc1nc(-c2ccccc2)c(C)[nH]1)C(C)C [Cpd 166]
Ki [1]: 0.3 µM and 0.375 µM

Cc1cc(O)cc(C)c1C[C@H](N)C(=O)N(Cc1nc(-c2ccc(F)cc2)c(C)[nH]1)C(C)C [Cpd 163]
Ki [1]: 0.301 µM and 0.063 µM

COc1ccc(CN(C(=O)[C@@H](N)Cc2c(C)cc(C(N)=O)cc2C)[C@@H](C)c2nc(-c3ccc(I)cc3)c[nH]2)cc1C(=O)O [Cpd 289]
MEGIT-RS entire GI transit 5 hr (% RS) [3]: 14.1 % RS
EC50 [2, 5]: > 10 µM
DOR GTP-binding Assay v2 (% I) [2, 6]: 86.27%
response vs control in vivo at 30 mg [4]: 76.4%

C[C@H](c1nc(-c2ccccc2)c[nH]1)N(C)C(=O)[C@@H](N)Cc1ccc(C(N)=O)cc1 [Cpd 203]
Ki [1]: 0.501 µM

CC(C)N(Cc1nc(-c2ccccc2)c[nH]1)C(=O)[C@@H](N)Cc1ccc(O)cc1 [Cpd 195]
Ki [1]: > 10 µM

COc1ccc(CN(C(=O)[C@@H](N)Cc2c(C)cc(C(N)=O)cc2C)[C@@H](C)c2nc(-c3ccccc3)c[nH]2)cc1-c1nnn[nH]1 [Cpd 8]
EC50 [2, 5]: > 10 µM
DOR GTP-binding Assay v2 (% I) [2, 6]: 94.03%
response vs control in vivo at 30 mg [4]: 77.3%

Cc1cc(O)cc(C)c1C[C@H](N)C(=O)N(C)[C@@H](C)c1nc(-c2ccccc2)c[nH]1 [Cpd 207]
Ki [1]: 0.132 µM

Cc1cc(O)cc(C)c1C[C@H](N)C(=O)N(Cc1nc(-c2ccccc2)c[nH]1)C(C)C [Cpd 194]
Ki [1]: 0.103 µM

COc1ccc(CN(C(=O)[C@@H](N)Cc2ccc(O)cc2)[C@@H](C)c2nc(-c3ccccc3)c[nH]2)cc1C(=O)O [Cpd 261]
MEGIT-RS entire GI transit 5 hr (% RS) [3]: 103.6 % RS
EC50 [2, 5]: 0.021 µM
DOR GTP-binding Assay v2 (% I) [2, 6]: 30.04%
response vs control in vivo at 30 mg [4]: 87.7%

Cc1cc(O)cc(C)c1C[C@H](N)C(=O)N(Cc1nc(-c2ccccc2)c[nH]1)C1CCCCC1 [Cpd 190]
Ki [1]: 0.285 µM

Cc1cc(C(N)=O)cc(C)c1C[C@H](N)C(=O)N(Cc1ccc(C(=O)O)o1)[C@@H](C)c1nc(-c2ccccc2)c[nH]1 [Cpd 256]
EC50 [2, 5]: > 10 µM
DOR GTP-binding Assay v2 (% I) [2, 6]: 89.19%
response vs control in vivo at 30 mg [4]: 89.7%

COC(=O)c1ccc(CN(C(=O)[C@@H](N)Cc2c(C)cc(C(N)=O)cc2C)[C@@H](C)c2nc(-c3ccccc3)c[nH]2)o1 [Cpd 257]
EC50 [2, 5]: 0.0074 µM
DOR GTP-binding Assay v2 (% I) [2, 6]: 48.88%

COc1ccc(CN(C(=O)[C@@H](N)Cc2c(C)cc(C(N)=O)cc2C)[C@@H](C)c2nc(-c3ccccc3)c[nH]2)cc1C(=O)O [Cpd 18]
MEGIT-NES Entire GI transit 6 hr (% NES) ([3]; dose 30 p.o., novel environment stress): 80 % NES
EC50 [2]: > 10 µM
DOR GTP-binding Assay v2 (% I) [2, 6]: 100%
response vs control in vivo at 5 mg ([4]; dose 5 (mg)): 94.2%
response vs control in vivo at 10 mg ([4]; dose 10 (mg)): 99.6%
response vs control in vivo at 25 mg ([4]; dose 25 (mg)): 83%
response vs control in vivo at 30 mg [4]: 37.5%
response vs control in vivo at 50 mg ([4]; dose 50 (mg)): 69.9%
response vs control in vivo at 100 mg [4]: 41.2%

CCN(C(=O)[C@@H](N)Cc1c(C)cc(O)cc1C)[C@H](C)c1nc(-c2ccccc2)c[nH]1 [Cpd 217]
Ki [1]: 0.506 µM
